Activity calls are given as the source filed them. The rule behind the calls is not given here.
Columns and labels:
[1] = system: A549; experiment: Cytotoxicity against human A549 cells at 10 to 40 uM by SRB assay; format: functional, cell-based; settings: TDE = time-dependent effect
[2] = system: A549; experiment: Induction of necrosis in human A549 cells assessed as LDH release at 40 uM after 48 hrs; format: functional, cell-based
[3] = system: A549; experiment: Cytotoxicity against human A549 cells after 48 hrs by SRB assay; format: functional, cell-based; settings: for IC50: A549, 48 h
[4] = system: A549; experiment: Anticancer activity against human A549 cells assessed as increase in autophagosome level at 40 uM after 24 hrs by Western blot analysis; format: functional, cell-based
[5] = system: A549; experiment: Anticancer activity against human A549 cells assessed as occurrence of autophagy at 10 to 40 uM after 48 hrs by acridine orange staining-based fluorescence microscopy; format: functional, cell-based
[6] = system: A549; experiment: Induction of apoptosis in human A549 cells assessed as occurrence of nuclear granulation at 10 to 40 uM after 48 hrs by Hoechst 33258 staining-based fluorescence microscopy; format: functional, cell-based
[7] = system: A549; experiment: Anticancer activity against human A549 cells assessed as increase in autophagosome level at 20 uM after 24 hrs by Western blot analysis; format: functional, cell-based
[8] = system: A549; experiment: Cytotoxicity against human A549 cells at 20 uM after 48 hrs by SRB assay; format: functional; settings: A549, 48 h
[9] = system: A549; experiment: Cytotoxicity against human A549 cells at 10 uM after 48 hrs by SRB assay; format: functional; settings: A549, 48 h
[10] = system: A549; experiment: Cytotoxicity against human A549 cells at 40 uM after 48 hrs by SRB assay; format: functional; settings: A549, 48 h

SMILES	Activity [1]	Activity [2]	Activity [3]	IC50 [3] [µM]	Activity [4]	Activity [5]	Activity [6]	Activity [7]	inhibition at 20 µM [8] [%]	inhibition at 10 µM [9] [%]	inhibition at 40 µM [10] [%]
CCOC(=O)c1cc(-c2ccccc2)nn1C/C(=N/O)c1ccc(OC)cc1	tde	inactive	Dose-dependent effect	29.1	inactive						
CCOC(=O)c1cc(-c2ccc(OC)cc2)nn1C/C(=N/O)c1ccc(OC)cc1	tde	inactive	Dose-dependent effect	36.5	Active	Active					
CCOC(=O)c1cc(-c2ccc(OC)cc2)nn1C/C(=N/O)c1ccccc1	tde	inactive	Dose-dependent effect	42.7			Active				
CCOC(=O)c1cc(-c2ccccc2)nn1C/C(=N/O)c1ccc(Cl)cc1	tde	inactive	Dose-dependent effect	26.3		Active	Active	Active			
CCOC(=O)c1cc(-c2ccc(Cl)cc2)nn1C/C(=N/O)c1ccccc1	tde	inactive	Dose-dependent effect	31.4	Active	Active	Active				
CCOC(=O)c1cc(-c2ccc(Cl)cc2)nn1C/C(=N/O)c1ccc(Cl)cc1	tde	inactive	Dose-dependent effect	14.6		Active	Active	Active	51.9	58.6	10.3
CCOC(=O)c1cc(-c2ccc(Cl)cc2)nn1C/C(=N/O)c1ccc(OC)cc1	tde	inactive	Dose-dependent effect	17.8	Active	Active					
CCOC(=O)c1cc(-c2ccccc2)nn1C/C(=N/O)c1ccccc1	tde	inactive	Dose-dependent effect	29.8			Active				
CCOC(=O)c1cc(-c2ccc(OC)cc2)nn1C/C(=N/O)c1ccc(Cl)cc1	tde	inactive	Dose-dependent effect	16.3	Active	Active	Active				

— ChEMBL document CHEMBL1208777, “Synthesis of novel oxime-containing pyrazole derivatives and discovery of regulators for apoptosis and autophagy in A549 lung cancer cells” (Bioorg Med Chem Lett, 2010)
